Active and inactive are the calls of the source.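 How the source made its calls: active means compounds whose half-maximal inhibitory concentration of the SKN-1 reporter ratio in worms is 20 µM or lower; inactive means the rest.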
What follows are compounds tested on C. elegans VP596 Pgst-4::GFP/RFP ratio, acrylamide-induced, 24 h (assay: structure-activity of worm SKN-1 blockers – whole organism, GFP/RFP fluorescence ratio, strain VP596, SAR follow-up (AID 651996)).

IC50, inactive:
Cc1ccc(Nc2nc(-c3cccs3)cs2)nc1 21.8 µM, COc1cc(CNC(C)(C)CO)cc(Br)c1OCc1ccc(Cl)cc1 26.2 µM, O=C(/C=C/Nc1ccc(F)cc1F)c1ccco1 23.3 µM, O=C(/C=C/Nc1ccccc1F)c1cccs1 23.2 µM, Clc1ccccc1-c1nnc(-c2ccccc2Cl)o1 24.9 µM, COc1cc(CNC(C)c2ccccc2)cc(Br)c1OCc1ccc(F)cc1 (configuration not stated) > 64 µM, O=C(Nc1nc(-c2ccc(Cl)s2)cs1)c1cccs1 58.9 µM, Cc1ccc(CSc2nnc(-c3ccco3)o2)cc1 22.7 µM, COc1ccc(C(=O)Nc2nc(-c3cccs3)cs2)cc1 28.9 µM, Cc1ccc(N=C/C(C(=O)C(F)(F)F)=C(\O)c2ccco2)cc1Cl 33.1 µM

IC50, active:
c1ccc(-c2csc(-c3ccncc3)n2)cc1 7.34 µM, Fc1ccc(-c2csc(Nc3ccccn3)n2)cc1 3.81 µM, CCOc1cc(CNC2CCCC2)cc(Cl)c1OCc1ccccc1 9.86 µM, Fc1ccc(COc2ccc(-c3nnco3)cc2)c(Cl)c1 2.25 µM, Cc1ccccc1-c1noc(-c2cccs2)n1 6.42 µM, c1ccc2oc(SCc3nc4ccccc4s3)nc2c1 15.5 µM, Cc1cc(OCc2cccc(Cl)c2)c(C)cc1CN1CCOCC1 7.19 µM, O=C(/C=C/c1ccccc1)Nc1ccc(CN2CCOCC2)cc1 14.8 µM, O=C(Nc1nc(-c2ccc(Cl)s2)cs1)c1ccccc1 13 µM, O=C(/C=C/c1cccs1)c1ccc(Br)cc1 12.4 µM, O=C(/C=C/Nc1ccc(F)c(F)c1)c1cccs1 14.3 µM, c1ccc(Nc2nc(-c3cccs3)cs2)nc1 13.8 µM, COc1cc(CNC2CCCC2)cc(Cl)c1OCc1ccc(F)cc1 7.21 µM, Brc1ccc(CSc2nnc(-c3ccco3)o2)cc1 7.06 µM, O=C(Nc1nc(-c2ccccc2)cs1)c1cccs1 16.9 µM, CCOc1cc(CNCCSc2nnnn2C)cc(Br)c1OCc1ccc(F)cc1 17 µM, CCOc1cc(CNC2CCCC2)cc(Cl)c1OCc1ccc(F)cc1 4.49 µM, CCOC(=O)c1c(-c2ccc(-c3ccccc3)cc2)csc1NC(=O)CNCCN(C)C 10.9 µM, O=C(/C=C/Nc1ccc(F)c(Cl)c1)c1ccco1 12.5 µM, CCOC(=O)Nc1nc(-c2ccc(F)cc2F)cs1 4.63 µM, Brc1ccc(CSc2nnc(-c3cccnc3)o2)cc1 19.1 µM, O=C(Nc1nc(-c2ccc(Cl)s2)cs1)c1ccco1 8.95 µM, Fc1ccc(COc2ccc(-c3nnco3)cc2)cc1 4.14 µM, c1ccc2sc(SCc3ccc(-c4nnco4)cc3)nc2c1 10.5 µM, CCOc1ccc(-c2nc(-c3cccnc3)no2)cc1 9.89 µM, Brc1ccc(-c2nc(-c3ccccc3)no2)o1 8.64 µM, c1ccc(SCc2cc(-c3ccccc3)no2)cc1 7.39 µM, O=C(/C=C/Nc1ccc(F)cc1F)c1cccs1 8.44 µM, Cc1nc2ccccc2cc1OCc1ccc(F)cc1 7.88 µM, Clc1ccc(-c2nnc(-c3ccccc3)o2)c(Cl)c1 0.64 µM, Brc1ccc(-c2nnc(-c3ccco3)o2)cc1 13.8 µM, O=C(Nc1nc2c(ccc3ccccc32)s1)c1ccco1 16.9 µM, Cc1oc(-c2ccc(-c3ccccc3)cc2)nc1CN(C)C1CCOC1 (configuration not stated) 15.5 µM, Cc1ccc(-c2noc(-c3cccs3)n2)cc1 10.7 µM, Fc1ccc(-c2csc(-c3ccncc3)n2)cc1 1.58 µM, c1ccc(-c2csc(Nc3ccccn3)n2)cc1 8.17 µM, c1ccc(-c2nc(-c3ccncc3)no2)cc1 6.15 µM, Clc1ccc(-c2nnc(-c3ccco3)o2)cc1 14.3 µM, O=C(Nc1ccc(CN2CCOCC2)cc1)c1cc2ccccc2o1 18 µM, O=C(/C=C/Nc1ccc(Br)cc1F)c1ccco1 12.2 µM, O=C(Nc1nccs1)c1ccc2ccccc2n1 6.84 µM, O=C(/C=C/c1ccc(Br)cc1)c1ccc(NC2=NCCCS2)cc1 9.32 µM, CSc1cccc(NC(=O)c2cccc3cccnc23)c1 9.32 µM, Clc1ccccc1-c1nc(-c2ccncc2)no1 7.94 µM, CC(C)c1ccc(C(=O)Nc2ccc(CN3CCOCC3)cc2)cc1 4.74 µM, Clc1ccc(Nc2nc(-c3cccs3)cs2)nc1 8.93 µM, CCc1ccc(-c2nc(-c3ccncc3)no2)cc1 11.8 µM

From PubChem BioAssay AID651996 (Sanford-Burnham Center for Chemical Genomics, 2013)
